Experimental data as given in PubChem BioAssay AID248 (DTP/NCI, 2004).
Inconclusive results and toxic doses are left out. Cut-off read from the data, not from the text of the source: active = T/C of 150% or more; inactive = T/C below 125%.

Tested on: L1210 leukemia ip in BDF1 mice, survival T/C
Assay: NCI In Vivo Anticancer Drug Screen. Data for tumor model L1210 Leukemia (intraperitoneal) in B6D2F1 (BDF1) mice
Settings: endpoint: mean survival time, higher = longer survival
Method in brief: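 Tumor was transplanted into mice, which were then dosed with test compound or vehicle alone. Survival was recorded for each group, and the treated figure was expressed relative to the control figure.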

[1] = dose: 50.0 mg/kg/injection, schedule: Q01DX001 (ip), vehicle: saline
[2] = dose: 100.0 mg/kg/injection, schedule: Q01DX001 (ip), vehicle: saline
[3] = dose: 200.0 mg/kg/injection, schedule: Q01DX001 (ip), vehicle: saline
[4] = dose: 400.0 mg/kg/injection, schedule: Q01DX001 (ip), vehicle: saline
[5] = dose: 100.0 mg/kg/injection, schedule: Q01DX009 (ip), vehicle: saline with Tween-80
[6] = dose: 200.0 mg/kg/injection, schedule: Q01DX009 (ip), vehicle: saline with Tween-80
[7] = dose: 400.0 mg/kg/injection, schedule: Q01DX009 (ip), vehicle: saline with Tween-80
[8] = dose: 100.0 mg/kg/injection, schedule: Q01DX001 (ip), vehicle: carboxymethylcellulose (CMC)
[9] = dose: 200.0 mg/kg/injection, schedule: Q01DX001 (ip), vehicle: carboxymethylcellulose (CMC)
[10] = dose: 400.0 mg/kg/injection, schedule: Q01DX001 (ip), vehicle: carboxymethylcellulose (CMC)
[11] = dose: 100.0 mg/kg/injection, schedule: Q04DX002 (ip), vehicle: saline with Tween-80
[12] = dose: 200.0 mg/kg/injection, schedule: Q04DX002 (ip), vehicle: saline with Tween-80
[13] = dose: 400.0 mg/kg/injection, schedule: Q04DX002 (ip), vehicle: saline with Tween-80
[14] = dose: 100.0 mg/kg/injection, schedule: Q04DX003 (ip), vehicle: Klucel (hydroxypropylcellulose) (HPC)
[15] = dose: 200.0 mg/kg/injection, schedule: Q04DX003 (ip), vehicle: Klucel (hydroxypropylcellulose) (HPC)
[16] = dose: 400.0 mg/kg/injection, schedule: Q04DX003 (ip), vehicle: Klucel (hydroxypropylcellulose) (HPC)
[17] = dose: 12.5 mg/kg/injection, schedule: Q01DX009 (ip), vehicle: saline
[18] = dose: 25.0 mg/kg/injection, schedule: Q01DX009 (ip), vehicle: saline
[19] = dose: 50.0 mg/kg/injection, schedule: Q01DX009 (ip), vehicle: saline
[20] = dose: 100.0 mg/kg/injection, schedule: Q01DX009 (ip), vehicle: Klucel (hydroxypropylcellulose) (HPC)
[21] = dose: 200.0 mg/kg/injection, schedule: Q01DX009 (ip), vehicle: Klucel (hydroxypropylcellulose) (HPC)
[22] = dose: 100.0 mg/kg/injection, schedule: Q01DX009 (ip), vehicle: saline
[23] = dose: 100.0 mg/kg/injection, schedule: Q04DX003 (ip), vehicle: saline
[24] = dose: 200.0 mg/kg/injection, schedule: Q01DX009 (ip), vehicle: saline
[25] = dose: 200.0 mg/kg/injection, schedule: Q04DX003 (ip), vehicle: saline

Measured: T/C

CN=C(C#N)c1ccc(OC)c(OC)c1
inactive: [1] 102 % of control | [2] 96 % of control | [3] 102 % of control | [4] 102 % of control

O=S1(=O)CCCC1=C(c1ccccc1)c1ccccc1
inactive: [5] 105 % of control | [6] 100 % of control | [7] 107 % of control

CCSCCC1(CCC(C)C)C(=O)NC(=Nc2ccccc2)NC1=O (stereo not given)
inactive: [8] 90 % of control | [9] 88 % of control | [10] 96 % of control

O=C1/C(=C/c2ccc(O)c(O)c2)CCc2ccccc21
inactive: dose: 30.0 mg/kg/injection, schedule: Q01DX015 (ip), vehicle: saline 97 % of control | dose: 60.0 mg/kg/injection, schedule: Q01DX015 (ip), vehicle: saline 94 % of control | dose: 120.0 mg/kg/injection, schedule: Q01DX015 (ip), vehicle: saline 94 % of control | dose: 240.0 mg/kg/injection, schedule: Q01DX015 (ip), vehicle: saline 100 % of control

C=C=CCCCC
inactive: dose: 75.0 mg/kg/injection, schedule: Q01DX001 (ip), vehicle: saline 101 % of control | dose: 75.0 mg/kg/injection, schedule: Q04DX003 (ip), vehicle: saline 112 % of control | dose: 150.0 mg/kg/injection, schedule: Q01DX001 (ip), vehicle: saline 111 % of control | dose: 150.0 mg/kg/injection, schedule: Q04DX003 (ip), vehicle: saline 104 % of control | dose: 300.0 mg/kg/injection, schedule: Q01DX001 (ip), vehicle: saline 102 % of control | dose: 300.0 mg/kg/injection, schedule: Q04DX003 (ip), vehicle: saline 101 % of control

CC1CN=C(c2ccc(N)cc2)S1 (stereo not given)
inactive: dose: 87.0 mg/kg/injection, schedule: Q04DX003 (ip), vehicle: Klucel (hydroxypropylcellulose) (HPC) 94 % of control | dose: 175.0 mg/kg/injection, schedule: Q04DX003 (ip), vehicle: Klucel (hydroxypropylcellulose) (HPC) 105 % of control

COc1ccc(CSSP(=S)(OC)c2ccc(OC)cc2)cc1 (stereo not given)
inactive: [5] 91 % of control | [6] 95 % of control | [7] 88 % of control

CC(C)C(NC(=O)C1CSC(C)(C)N1C=O)C(N)=O (stereo not given)
inactive: dose: 100.0 mg/kg/injection, schedule: Q04DX003 (ip), vehicle: saline with Tween-80 101 % of control | dose: 200.0 mg/kg/injection, schedule: Q04DX003 (ip), vehicle: saline with Tween-80 98 % of control | dose: 400.0 mg/kg/injection, schedule: Q04DX003 (ip), vehicle: saline with Tween-80 101 % of control

COc1ccc2c(c1)C(Br)N(S(=O)(=O)c1ccc(C)cc1)CCC2=O (stereo not given)
inactive: dose: 25.0 mg/kg/injection, schedule: Q01DX009 (ip), vehicle: other 97 % of control | dose: 50.0 mg/kg/injection, schedule: Q01DX009 (ip), vehicle: other 95 % of control | dose: 100.0 mg/kg/injection, schedule: Q01DX009 (ip), vehicle: other 92 % of control | dose: 100.0 mg/kg/injection, schedule: Q04DX003 (ip), vehicle: other 92 % of control | dose: 200.0 mg/kg/injection, schedule: Q01DX009 (ip), vehicle: other 104 % of control | dose: 200.0 mg/kg/injection, schedule: Q04DX003 (ip), vehicle: other 97 % of control | dose: 400.0 mg/kg/injection, schedule: Q04DX003 (ip), vehicle: other 89 % of control

CCOC(=O)CNS(=O)(=O)c1ccccc1
inactive: [2] 98 % of control | [3] 101 % of control | [4] 101 % of control

CCN(CC)CC(O)CNc1ccnc2cc(Cl)ccc12 (stereo not given)
inactive: dose: 25.0 mg/kg/injection, schedule: Q01DX009 (ip), vehicle: saline with Tween-80 97 % of control | dose: 50.0 mg/kg/injection, schedule: Q01DX009 (ip), vehicle: saline with Tween-80 86 % of control | [5] 97 % of control

O=c1nc2ccc3[nH]c(O)c4ccc1c2c34
inactive: [1] 104 % of control | [2] 104 % of control | [3] 104 % of control | [4] 98 % of control

Cc1cc(C)c(-c2cc(C(O)C3OC4OC(C)(C)OC4C4OC(C)(C)OC34)on2)c(C)c1 (stereo not given)
inactive: [11] 97 % of control | [12] 87 % of control | [13] 87 % of control

CC(C)(C)c1cc(O)cc(C(C)(C)C)c1
inactive: [11] 100 % of control | [12] 97 % of control | [13] 100 % of control

COc1ccc(NN=Nc2ccccc2C#N)cc1
inactive: [14] 106 % of control | [15] 100 % of control | [16] 108 % of control

Cc1ccc(S(=O)(=O)N2c3ccccc3-c3ccccc3C(=O)C2Br)cc1 (stereo not given)
inactive: [8] 105 % of control | [9] 105 % of control | [10] 124 % of control

COc1ncc(F)c(OC)n1
inactive: [2] 100 % of control | [3] 96 % of control | [4] 91 % of control

OC(O)(C(F)(F)F)C(F)(F)F
inactive: dose: 12.5 mg/kg/injection, schedule: Q01DX005 (ip), vehicle: saline 108 % of control | [17] 95 % of control | dose: 25.0 mg/kg/injection, schedule: Q01DX005 (ip), vehicle: saline 108 % of control | [18] 104 % of control | dose: 50.0 mg/kg/injection, schedule: Q01DX005 (ip), vehicle: saline 104 % of control | [19] 92 % of control

Cc1ccc(S(=O)(=O)O)cc1.[Ag]
inactive: dose: 25.0 mg/kg/injection, schedule: Q04DX002 (ip), vehicle: saline + alcohol 92 % of control | dose: 50.0 mg/kg/injection, schedule: Q04DX002 (ip), vehicle: saline + alcohol 96 % of control

CC(=O)Nc1ccc2ccccc2c1Br
inactive: [20] 104 % of control | [14] 95 % of control | [21] 103 % of control | [15] 95 % of control | dose: 400.0 mg/kg/injection, schedule: Q01DX009 (ip), vehicle: Klucel (hydroxypropylcellulose) (HPC) 119 % of control | [16] 95 % of control

CCCCCCCCC1SC1CCCCCCCCOC(=O)CCCCCCCC1SC1CCCCCCCC (stereo not given)
inactive: [5] 101 % of control | [6] 93 % of control | [7] 91 % of control

C/C=C/C(=O)OC1CC2OC3C=C(C)C4OC4C3(C)C1(C)C21CO1 (stereo not given)
inactive: [19] 96 % of control | [22] 96 % of control | [23] 90 % of control | [24] 108 % of control | [25] 92 % of control | dose: 400.0 mg/kg/injection, schedule: Q04DX003 (ip), vehicle: saline 88 % of control

CCCCNP(=O)(OCC)OCC
inactive: [17] 91 % of control | dose: 12.5 mg/kg/injection, schedule: Q04DX003 (ip), vehicle: saline 101 % of control | [18] 104 % of control | dose: 25.0 mg/kg/injection, schedule: Q04DX003 (ip), vehicle: saline 113 % of control | [19] 104 % of control | dose: 50.0 mg/kg/injection, schedule: Q04DX003 (ip), vehicle: saline 101 % of control | [22] 109 % of control | [23] 101 % of control | [24] 96 % of control | [25] 101 % of control

ClC1c2ccccc2-c2nsnc2C1Cl (stereo not given)
inactive: dose: 50.0 mg/kg/injection, schedule: Q01DX009 (ip), vehicle: Klucel (hydroxypropylcellulose) (HPC) 94 % of control | [20] 87 % of control | [21] 91 % of control | dose: 200.0 mg/kg/injection, schedule: Q04DX002 (ip), vehicle: Klucel (hydroxypropylcellulose) (HPC) 92 % of control

CC(C)=CCC/C(C)=C\C=N\NC(N)=S
inactive: dose: 50.0 mg/kg/injection, schedule: Q01DX001 (ip), vehicle: carboxymethylcellulose (CMC) 96 % of control | [8] 104 % of control | [9] 104 % of control
